Measured values published in ChEMBL document CHEMBL1201862, “PubChem BioAssay data set” (2004).
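Following 48 hours of exposure in 96-well plates, responses at five concentrations were used to interpolate endpoints linearly. GI50 = concentration required for 50% inhibition of growth.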 Calls of active or inactive are those of the source. Cut-off read from the data, not from the text of the source: active = GI50 up to about 1.1 µM and inactive = higher.

Tests used:
Assay in all cases: inhibition of tumour cell growth, NCI panel, 48 h
KM-20L2 = test system: KM-20L2
XF498 = test system: XF498
DMS-273 = test system: DMS-273
DLD-1 = test system: DLD-1
HOP-18 = test system: HOP-18
M19-MEL = test system: M19-MEL
RXF 631 = test system: RXF 631
SNB-78 = test system: SNB-78
DMS-114 = test system: DMS-114

SMILES | GI50 (KM-20L2) | GI50 (XF498) | GI50 (DMS-273) | GI50 (DLD-1) | GI50 (HOP-18) | GI50 (M19-MEL) | GI50 (RXF 631) | GI50 (SNB-78) | GI50 (DMS-114)
CN(CC(=O)O)S(=O)(=O)c1ccc2ccccc2c1 | > 100 µM (inactive) | > 100 µM (inactive) | > 100 µM (inactive) | > 100 µM (inactive) | > 100 µM (inactive) | > 100 µM (inactive) | > 100 µM (inactive) |  | 
CC(Oc1ccc2c(-c3ccc(Cl)cc3)cc(=O)oc2c1)C(=O)O (stereo not drawn) | > 100 µM (inactive) | 2.35 µM (inactive) |  | > 100 µM (inactive) | > 100 µM (inactive) |  | > 100 µM (inactive) | > 100 µM (inactive) | 
COC(=O)C12CC(C3CC31)C1CC12 (stereo not drawn) | > 100 µM (inactive) |  | > 100 µM (inactive) | > 100 µM (inactive) | > 100 µM (inactive) | > 100 µM (inactive) | > 100 µM (inactive) |  | > 100 µM (inactive)
CC(C)(C)N/N=C(\C(=O)Nc1cccc(Cl)c1)C1C(=O)Nc2ccccc2[S+]1[O-] (stereo not drawn) | > 100 µM (inactive) | > 100 µM (inactive) | > 100 µM (inactive) | > 100 µM (inactive) | > 100 µM (inactive) | > 100 µM (inactive) | > 100 µM (inactive) |  | > 100 µM (inactive)
O=c1/c(=C/c2ccccc2[N+](=O)[O-])sc2nnc(-c3cccnc3)n12 | > 100 µM (inactive) | > 100 µM (inactive) | > 100 µM (inactive) | > 100 µM (inactive) | > 100 µM (inactive) | > 100 µM (inactive) | > 100 µM (inactive) | > 100 µM (inactive) | > 100 µM (inactive)
CC1=Nn2c(nnc2-c2ccc(Cl)cc2)NC(C)(C)C1 | > 100 µM (inactive) | > 100 µM (inactive) | > 100 µM (inactive) | > 100 µM (inactive) | > 100 µM (inactive) | > 100 µM (inactive) |  | > 100 µM (inactive) | > 100 µM (inactive)
O=c1n(-c2ccccc2)c(=O)n2n1C1C=CC2C2C(C1)C2(Cl)Cl (stereo not drawn) | > 100 µM (inactive) | > 100 µM (inactive) | > 100 µM (inactive) | > 100 µM (inactive) |  | > 100 µM (inactive) | > 100 µM (inactive) | > 100 µM (inactive) | > 100 µM (inactive)
[O-][n+]1c(-c2ccccc2)oc2ccccc21 | 21.1 µM (inactive) | 35.6 µM (inactive) | 12.6 µM (inactive) | 7.82 µM (inactive) | 6.44 µM (inactive) | 1.89 µM (inactive) | 47 µM (inactive) | 41.4 µM (inactive) | 3.48 µM (inactive)
COc1ccc2ccc3c(c2c1)CN1CCc2cc(OC)c(OC)cc2C1C3 (stereo not drawn) | > 100 µM (inactive) | 60.3 µM (inactive) | > 100 µM (inactive) | > 100 µM (inactive) | > 100 µM (inactive) |  | > 100 µM (inactive) | > 100 µM (inactive) | > 100 µM (inactive)
[O-][S+]1c2ccccc2N=C(c2ccc3ccccc3c2)CC1C1=CC=CCC1 (stereo not drawn) | 19.5 µM (inactive) | 17.1 µM (inactive) | 19.2 µM (inactive) | 12.9 µM (inactive) | 35.8 µM (inactive) | 17.1 µM (inactive) | 17.2 µM (inactive) |  | 15.2 µM (inactive)
CCN(CC)CCNc1ccc2ncn3c4cc(O)ccc4c(=O)c1c23 | 3.7 µM (inactive) | 2.9 µM (inactive) | 2.77 µM (inactive) | 3.76 µM (inactive) |  | 3.94 µM (inactive) | 2.1 µM (inactive) | 5.35 µM (inactive) | 4.29 µM (inactive)
C=C(C)CC(C)(c1cc2ccccc2n1C)N1CCOCC1 (stereo not drawn) | > 100 µM (inactive) | 50.6 µM (inactive) | 61 µM (inactive) | 60.5 µM (inactive) | > 100 µM (inactive) | > 100 µM (inactive) | 42.4 µM (inactive) |  | 
COC1/C=C\C=C(/C)C(=O)Nc2cc3nc4ccc(Br)cc4oc-3c(c2=O)CC(C)CC(OC)C(O)C(C)/C=C(\C)C1OC(N)=O (stereo not drawn) | < 0.0181 µM (active) | < 0.0202 µM (active) | < 0.0216 µM (active) | 0.0447 µM (active) | 0.01 µM (active) | 0.0383 µM (active) |  | 0.998 µM (active) | 0.0604 µM (active)
N#Cc1cccc(N2C(=O)C3C4C=CC(C3C2=O)C2C(=O)N(c3cccc(C#N)c3)C(=O)C42)c1 (stereo not drawn) | > 100 µM (inactive) | 15.5 µM (inactive) | 15.2 µM (inactive) | > 46.5 µM (inactive) | > 65.2 µM (inactive) |  | 24.7 µM (inactive) | 12.7 µM (inactive) | 16.3 µM (inactive)
Fc1ccc2c(c1)cc1ccc3cccc4ccc2c1c34 | > 100 µM (inactive) | > 100 µM (inactive) | > 100 µM (inactive) | > 100 µM (inactive) | > 100 µM (inactive) | > 100 µM (inactive) | > 100 µM (inactive) | > 100 µM (inactive) | > 100 µM (inactive)
CC(=O)Nc1ccccc1S(=O)(=O)c1ccccc1 | > 100 µM (inactive) | 79.6 µM (inactive) | > 100 µM (inactive) | > 100 µM (inactive) | > 100 µM (inactive) | > 100 µM (inactive) | > 100 µM (inactive) | > 100 µM (inactive) | > 100 µM (inactive)
O=C(CC1C(=O)Nc2ccccc2S1(=O)=O)Nc1cc(Cl)ccc1Cl (stereo not drawn) | 15.6 µM (inactive) | 14.1 µM (inactive) |  | 15 µM (inactive) |  | 16.2 µM (inactive) | 28.4 µM (inactive) | 12.7 µM (inactive) | 12.5 µM (inactive)
C/C(=C\C(C[C@](C)(O)C(O)CCC#C[Si](C)(C)C)S(=O)(=O)c1ccccc1)CC/C=C/CO[Si](C)(C)C(C)(C)C (stereo partly drawn) | 8.61 µM (inactive) | 13.2 µM (inactive) | 15.7 µM (inactive) | 23.6 µM (inactive) |  | 17.2 µM (inactive) | 9.66 µM (inactive) | 16.8 µM (inactive) | 15.2 µM (inactive)
CSC[S+]([O-])C[C@H](CO)NC(=O)/C=C/c1c(C)[nH]c(=O)[nH]c1=O (stereo partly drawn) | 0.979 µM (active) | 0.214 µM (active) | 1.43 µM (inactive) | 1.6 µM (inactive) | 2.85 µM (inactive) | 0.718 µM (active) | 2.58 µM (inactive) | 0.318 µM (active) | 0.757 µM (active)
COC(=O)[C@@]12OC[C@]34[C@H]([C@@H](O)[C@@H]1O)[C@@]1(C)CC(=O)C(O)=C(C)[C@@H]1C[C@H]3OC(=O)[C@H](OC(=O)/C=C(\C)C(C)C)[C@@H]24 [BRUCEANTIN] | 0.02 µM (active) | 0.02 µM (active) |  | 0.02 µM (active) | 0.0265 µM (active) | 0.02 µM (active) | 0.000314 µM (active) | 0.02 µM (active) | 
